The values below come from US5859007A, “CCK or gastrin modulating benzo [b][1,4] diazepines derivatives” (Glaxo Wellcome Inc., priority 1994, dated 1999).

The subject of the test is isolated guinea pig gallbladder. Kind of test: Functional activity in isolated guinea pig gallbladder preparation. Particulars: expressed as % CCK-induced maximal response; for activation at 1 µM / activation at 30 µM: Cavia porcellus; for activation at 1 µM / %Contraction (1 × 10^-6 M): 1 × 10^-6 M test compound; for activation at 1 µM: read-out: %Contraction (1 × 10^-6 M); for activation at 30 µM / % Contraction (3 × 10^-5 M): 3 × 10^-5 M test compound; for activation at 30 µM: read-out: % Contraction (3 × 10^-5 M). The class given is cell-based. How it is done: 3. GUINEA PIG GALL BLADDER ASSAY
Gallbladders are removed from guinea pigs sacrificed by cervical dislocation. The isolated gallbladders are cleaned of adherent connective tissue and cut into two rings from each animal (2-4 mm in length). The rings are subsequently suspended in organ chambers containing a physiological salt solution (118.4 mM NaCl, 4.7 mM KCl, 1.2 mM MgSO4, 2.5 mM CaCl2, 1.2 mM KH2 […], 25 mM NaHCO3, 11.1 mM dextrose). The bathing solution is maintained at 37° C. and aerated with 95% O2 /5% CO2. Tissues are connected via gold chains and stainless steel mounting wires to isometric force displacement transducers (Grass, Model FT03 D). Responses are then recorded on a polygraph (Grass, Model 7E).
Rings are gradually stretched (over a 120 min. period) to a basal resting tension of 1 gm which is maintained throughout the experiment. During the basal tension adjustment period, the rings are exposed to acetylcholine (10^-6 M) four times to verify tissue contractility. The tissues are then exposed to a submaximal dose of sulfated CCK-8 (Sigma, 3×10^-9 M). After obtaining a stable response, the tissues are washed out 3 times rapidly and every 5 to 10 minutes for 1 hour to reestablish a stable baseline.
Compounds are dissolved in dimethylsulfoxide ([…]) followed by a concentration-response curve to sulfated CCK-8 (10^-10 to 10^-6 M) in the presence of the highest dose of the test compound. As a final test, ACH (10 mM) is added to induce maximal contraction. A minimum of three determinations of activity are made for each test compound.

On to `COc1ccc(N(C(=O)CN2C(=O)C(C)(Cc3n[nH]c4ccccc34)C(=O)N(c3cccnc3)c3ccccc32)C(C)C)cc1` (single isomer, unassigned) [Example 75, 2-[3-(1H-indazol-3-ylmethyl)-3-methyl-2,4-dioxo-5-pyridin-3-yl-2,3,4,5-tetrahydro-benzo[b][1,4]diazepin-1-yl]-N-isopropyl-N-(4-methoxy-phenyl)-acetamide], for which the activation at 1 µM is 102% and the activation at 30 µM worked out at 82%.

`COc1ccc(N(C(=O)CN2C(=O)C(Cc3n[nH]c4ccccc34)C(=O)N(c3cccnc3)c3ccccc32)C(C)C)cc1` (single isomer, unassigned; (+)) [Example 72, (+)-2-[3-(1H-Indazol-3-ylmethyl)-2,4-dioxo-5-pyridin-3-yl-2,3,4,5-tetrahydrobenzo[b][1,4]diazepin-1-yl]-N-isopropyl-N-(4-methoxyphenyl) acetamide]: the “%Contraction (1 × 10^-6 M)” value came out at 104% and the “% Contraction (3 × 10^-5 M)” value is 93%.

For the compound `COc1ccc(N(C(=O)CN2C(=O)C(Cc3n[nH]c4ccccc34)C(=O)N(c3cccnc3)c3ccccc32)C(C)C)cc1` (single isomer, unassigned; (-)) [Example 73, (-)-2-[3-(1H-Indazol-3-ylmethyl)-2,4-dioxo-5-pyridin-3-yl-2,3,4,5-tetrahydrobenzo[b][1,4]diazepin-1-yl]-N-isopropyl-N-(4-methoxyphenyl) acetamide], the “%Contraction (1 × 10^-6 M)” value stood at 58% and the “% Contraction (3 × 10^-5 M)” value is given as 64%.

In the case of `CCOC(=O)c1cccc(NC(=O)CC2C(=O)N(CC(=O)N(c3ccccc3)C(C)C)c3ccccc3N(c3ccccc3)C2=O)c1` (stereo not drawn) [Example 1], the activation at 30 µM was 64%.

Turning to `CC(C)N(C(=O)CN1C(=O)C(CC(=O)Nc2cccc(C(=O)O)c2)C(=O)N(c2ccccc2)c2ccccc21)c1ccccc1` (stereo not drawn) [Example 2], the activation at 30 µM amounted to 94%.

As to `CC(C)N(C(=O)CN1C(=O)C(C)(CC(=O)Nc2cccc(C(=O)O)c2)C(=O)N(c2ccccc2)c2ccccc21)c1ccccc1` (stereo not drawn) [Example 3, 2-[2,4-Dioxo-5-phenyl-3-methyl-3-(3-carboxyphenyl)carbamoylmethyl-2,3,4,5-tetrahydro-benzo[b][1,4]diazepin-1-yl]-N-isopropyl-N-phenyl acetamide], the activation at 1 µM was determined as 75% and the activation at 30 µM amounted to 102%.

For `CC(C)N(C(=O)CN1C(=O)C(C)(CC(=O)Nc2ccccc2)C(=O)N(c2ccccc2)c2ccccc21)c1ccccc1` (stereo not drawn) [Example 4, 2-(2,4-Dioxo-5-phenyl-3-methyl-3-phenylcarbamoylmethyl-2,3,4,5-tetrahydro-benzo[b][1,4]diazepin-1-yl)-N-isopropyl-N-phenyl acetamide], the activation at 1 µM was 80% and the activation at 30 µM was found to be 79%.

As to `CC(C)N(C(=O)CN1C(=O)C(C)(CC(=O)N(C)c2ccccc2)C(=O)N(c2ccccc2)c2ccccc21)c1ccccc1` (stereo not drawn) [Example 5, 2-(2,4-Dioxo-5-phenyl-3-methyl-N-methyl-3-phenylcarbamoylmethyl-2,3,4,5-tetrahydro-benzo[b][1,4]diazepin-1-yl)-N-isopropyl-N-phenyl acetamide], the activation at 1 µM was determined as 9%.

Take `CC(C)N(C(=O)CN1C(=O)C(C)(CCNc2ccccc2)C(=O)N(c2ccccc2)c2ccccc21)c1ccccc1` (stereo not drawn) [Example 6, N-Isopropyl-2-[3-methyl-2,4-dioxo-5-phenyl-3-(2-phenylaminoethyl)-2,3,4,5-tetrahydro-benzo[b][1,4]diazepin-1-yl]-N-phenyl acetamide]: the activation at 1 µM came to 7%.

With `CC(C)N(C(=O)CN1C(=O)C(C)(CC(=O)c2ccccc2)C(=O)N(c2ccccc2)c2ccccc21)c1ccccc1` (stereo not drawn) [Example 7, N-Isopropyl-2-[3-methyl-2,4-dioxo-3-(2-phenyl-2-oxoethyl)-5-phenyl-2,3,4,5-tetrahydro-benzo[b][1,4]diazepin-1-yl]-N-phenyl acetamide], the “%Contraction (1 × 10^-6 M)” value is given as 15%.
